Results as given in the supplement of paper PMC10627819.

Key:
[1] = test system: S. aureus DSM 20231; experiment: fitness (endpoint OD595 vs no drug) (fraction); higher = more growth
Procedure, shortened: (§1)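 In 384-well plates at 37 °C, cultures began at OD595 0.01 in 30 µl, with 55 µl used for S. pneumoniae. OD595 readings every 30 min for 14 h were corrected by the first reading. Fitness divides the stationary-phase transition optical density by the robust mean of no-drug control wells. The result is capped at 1.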

[2] = test system: S. aureus Newman; experiment: as above
Procedure, shortened: as §1

[3] = test system: S. pneumoniae D39V; experiment: as above
Procedure, shortened: as §1

[4] = test system: B. subtilis 168; experiment: Bliss interaction score (quartile over a dose matrix) (fitness difference); higher = more antagonism (negative = synergy)
Procedure, shortened: (§2)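 Each plate was normalised to the robust mean of its own no-drug wells, using OD595 at entry into stationary phase, with values capped at 1. This normalised growth is the fitness value. The Bliss score is the difference between observed and product-expected fitness, with single-drug fitness inferred from the combination data and quartiles taken over technical, biological and donor/recipient replicates.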

[5] = test system: S. aureus DSM 20231; experiment: as above
Procedure, shortened: as §2

[6] = test system: S. aureus Newman; experiment: as above
Procedure, shortened: as §2

[7] = test system: S. pneumoniae D39V; experiment: as above
Procedure, shortened: as §2
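Throughout, for Bliss interaction score (quartile over a dose matrix): first quartile when negative (synergy) and third quartile when positive (antagonism).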

COc1ccc(C[C@H](N)C(=O)N[C@H]2[C@@H](O)[C@H](n3cnc4c(N(C)C)ncnc43)O[C@@H]2CO)cc1 [Puromycin] + CN[C@H](CC(C)C)C(=O)N[C@H]1C(=O)N[C@@H](CC(N)=O)C(=O)N[C@H]2C(=O)N[C@H]3C(=O)N[C@H](C(=O)N[C@H](C(=O)O)c4cc(O)cc(O)c4-c4cc3ccc4O)[C@H](O)c3ccc(c(Cl)c3)Oc3cc2cc(c3O[C@@H]2O[C@H](CO)[C@@H](O)[C@H](O)[C@H]2O[C@H]2C[C@](C)(N)[C@H](O)[C@H](C)O2)Oc2ccc(cc2Cl)[C@H]1O [Vancomycin]
fitness
Conditions	[1]	[2]	[3]
first compound 0.39 µg/mL, partner 0.1875 µg/mL	≥ 1	≥ 1	–
first compound 0.39 µg/mL, partner 0.375 µg/mL	0.986	0.996	–
first compound 0.39 µg/mL, partner 0.75 µg/mL	≥ 1	≥ 1	–
first compound 0.78 µg/mL, partner 0.1875 µg/mL	≥ 1	≥ 1	–
first compound 0.78 µg/mL, partner 0.375 µg/mL	≥ 1	0.994	–
first compound 0.78 µg/mL, partner 0.75 µg/mL	≥ 1	0.979	–
first compound 1 µg/mL, partner 0.03125 µg/mL	–	–	0.999
first compound 1 µg/mL, partner 0.0625 µg/mL	–	–	0.989
first compound 1 µg/mL, partner 0.125 µg/mL	–	–	0.8
first compound 1.56 µg/mL, partner 0.1875 µg/mL	≥ 1	≥ 1	–
first compound 1.56 µg/mL, partner 0.375 µg/mL	≥ 1	0.978	–
first compound 1.56 µg/mL, partner 0.75 µg/mL	≥ 1	0.999	–
first compound 2 µg/mL, partner 0.03125 µg/mL	–	–	0.985
first compound 2 µg/mL, partner 0.0625 µg/mL	–	–	0.969
first compound 2 µg/mL, partner 0.125 µg/mL	–	–	0.849
first compound 4 µg/mL, partner 0.03125 µg/mL	–	–	0.808
first compound 4 µg/mL, partner 0.0625 µg/mL	–	–	0.822

one replicate
Conditions	fitness
[1], first compound 3.12 µg/mL, partner 0.1875 µg/mL	≥ 1
[1], first compound 3.12 µg/mL, partner 0.375 µg/mL	0.915
[1], first compound 3.12 µg/mL, partner 0.75 µg/mL	0.922
[1], first compound 6.24 µg/mL, partner 0.1875 µg/mL	0.642
[1], first compound 6.24 µg/mL, partner 0.375 µg/mL	0.737
[1], first compound 6.24 µg/mL, partner 0.75 µg/mL	0.716
[3], first compound 1 µg/mL, partner 0.25 µg/mL	0.088
[3], first compound 1 µg/mL, partner 0.5 µg/mL	0.0805
[3], first compound 2 µg/mL, partner 0.25 µg/mL	0.223
[3], first compound 2 µg/mL, partner 0.5 µg/mL	0.125
[3], first compound 4 µg/mL, partner 0.25 µg/mL	0.141
[3], first compound 4 µg/mL, partner 0.5 µg/mL	0.121

Conditions	Bliss interaction score
[4]	-0.0411
[5]	0.0659
[6]	0.0575
[7]	-0.0711

C[C@@H]1O[C@@H]1P(=O)(O)O [Fosfomycin] + Cn1nnc(-c2ccc(-c3ccc(N4C[C@H](CO)OC4=O)cc3F)cn2)n1 [Tedizolid]
fitness
Conditions	partner 0.03125 µg/mL	partner 0.0625 µg/mL	partner 0.125 µg/mL	partner 0.25 µg/mL	partner 0.5 µg/mL
[1], first compound 0.781 µg/mL	–	0.693	0.497	0.091	–
[1], first compound 1.562 µg/mL	–	0.66	0.372	0.0334	–
[1], first compound 3.124 µg/mL	–	0.493	0.202	0.0354	–
[2], first compound 0.781 µg/mL	–	0.52	–	–	–
[2], first compound 1.562 µg/mL	–	–	–	0.101	–
[2], first compound 3.124 µg/mL	–	0.106	0.0423	0.0102	–
[3], first compound 1.25 µg/mL	0.951	0.95	0.813	0.43	0.138
[3], first compound 2.5 µg/mL	0.936	0.906	0.792	0.455	0.132
[3], first compound 5 µg/mL	0.89	0.911	0.783	0.437	0.151

Conditions	Bliss interaction score
[4]	0.0967
[5]	0.069
[6]	-0.128
[7]	0.0919

COc1ccc(C[C@H](N)C(=O)N[C@H]2[C@@H](O)[C@H](n3cnc4c(N(C)C)ncnc43)O[C@@H]2CO)cc1 [Puromycin] + Cn1nnc(-c2ccc(-c3ccc(N4C[C@H](CO)OC4=O)cc3F)cn2)n1 [Tedizolid]
fitness
Conditions	partner 0.03125 µg/mL	partner 0.0625 µg/mL	partner 0.125 µg/mL	partner 0.25 µg/mL
[1], first compound 0.39 µg/mL	–	0.879	0.7	0.24
[1], first compound 0.78 µg/mL	–	0.831	0.794	0.267
[1], first compound 1.56 µg/mL	–	0.827	–	0.157
[2], first compound 0.39 µg/mL	–	0.987	0.884	0.479
[2], first compound 0.78 µg/mL	–	0.935	0.834	0.404
[2], first compound 1.56 µg/mL	–	0.942	0.829	0.304
[3], first compound 1 µg/mL	0.967	0.966	0.787	–
[3], first compound 2 µg/mL	0.958	0.935	0.78	–
[3], first compound 4 µg/mL	0.819	0.828	0.756	–

fitness, one replicate
Conditions	partner 0.0625 µg/mL	partner 0.125 µg/mL	partner 0.25 µg/mL	partner 0.5 µg/mL
[1], first compound 3.12 µg/mL	0.503	0.148	0.0225	–
[1], first compound 6.24 µg/mL	0.224	0.0566	0.0172	–
[3], first compound 1 µg/mL	–	–	0.652	0.184
[3], first compound 2 µg/mL	–	–	0.686	0.284
[3], first compound 4 µg/mL	–	–	0.499	0.234

Conditions	Bliss interaction score
[4]	-0.0598
[5]	-0.0959
[6]	0.0352
[7]	-0.1

C[C@@H]1O[C@@H]1P(=O)(O)O [Fosfomycin] + CN[C@H](CC(C)C)C(=O)N[C@H]1C(=O)N[C@@H](CC(N)=O)C(=O)N[C@H]2C(=O)N[C@H]3C(=O)N[C@H](C(=O)N[C@H](C(=O)O)c4cc(O)cc(O)c4-c4cc3ccc4O)[C@H](O)c3ccc(c(Cl)c3)Oc3cc2cc(c3O[C@@H]2O[C@H](CO)[C@@H](O)[C@H](O)[C@H]2O[C@H]2C[C@](C)(N)[C@H](O)[C@H](C)O2)Oc2ccc(cc2Cl)[C@H]1O [Vancomycin]
Conditions	fitness
[1], first compound 0.781 µg/mL, partner 0.1875 µg/mL	0.757
[1], first compound 0.781 µg/mL, partner 0.375 µg/mL	0.751
[1], first compound 0.781 µg/mL, partner 0.75 µg/mL	0.757
[1], first compound 1.562 µg/mL, partner 0.1875 µg/mL	0.596
[1], first compound 1.562 µg/mL, partner 0.375 µg/mL	0.638
[1], first compound 1.562 µg/mL, partner 0.75 µg/mL	0.624
[1], first compound 3.124 µg/mL, partner 0.1875 µg/mL	0.525
[1], first compound 3.124 µg/mL, partner 0.375 µg/mL	0.546
[1], first compound 3.124 µg/mL, partner 0.75 µg/mL	0.542
[2], first compound 0.781 µg/mL, partner 0.1875 µg/mL	0.649
[2], first compound 0.781 µg/mL, partner 0.375 µg/mL	0.628
[2], first compound 0.781 µg/mL, partner 0.75 µg/mL	0.655
[2], first compound 1.562 µg/mL, partner 0.1875 µg/mL	0.555
[2], first compound 1.562 µg/mL, partner 0.375 µg/mL	0.563
[2], first compound 1.562 µg/mL, partner 0.75 µg/mL	0.548
[2], first compound 3.124 µg/mL, partner 0.1875 µg/mL	0.279
[2], first compound 3.124 µg/mL, partner 0.375 µg/mL	0.255
[2], first compound 3.124 µg/mL, partner 0.75 µg/mL	0.245
[3], first compound 1.25 µg/mL, partner 0.03125 µg/mL	0.97
[3], first compound 1.25 µg/mL, partner 0.0625 µg/mL	0.916
[3], first compound 1.25 µg/mL, partner 0.125 µg/mL	0.905
[3], first compound 1.25 µg/mL, partner 0.5 µg/mL	0.0887
[3], first compound 2.5 µg/mL, partner 0.03125 µg/mL	0.87
[3], first compound 2.5 µg/mL, partner 0.0625 µg/mL	0.869
[3], first compound 2.5 µg/mL, partner 0.125 µg/mL	0.888
[3], first compound 2.5 µg/mL, partner 0.5 µg/mL	0.0855
[3], first compound 5 µg/mL, partner 0.03125 µg/mL	0.719
[3], first compound 5 µg/mL, partner 0.0625 µg/mL	0.726
[3], first compound 5 µg/mL, partner 0.25 µg/mL	0.255
[3], first compound 5 µg/mL, partner 0.5 µg/mL	0.0851

Conditions	Bliss interaction score
[4]	0.029
[5]	0.0454
[6]	0.103
[7]	-0.0646
